# Reference: the SangsterLogP compilation
# Assay: method code SF, from DOI: 10.1002/jps.2600790712, PMID: 2398468
row,logP,SMILES
1,4.15,C[C@H](CCCNCc1ccccc1)[C@H]1CC[C@H]2[C@@H]3C[C@H](O)[C@@H]4C[C@H](O)CC[C@]4(C)[C@H]3CC[C@]12C

# Assay: method code SF-AS, from DOI: 10.1002/jps.2600790712, PMID: 2398468
row,SMILES,logP
1,C[C@H](CCCNCc1cccc(Cl)c1)[C@H]1CC[C@H]2[C@@H]3CC[C@@H]4C[C@H](O)CC[C@]4(C)[C@H]3CC[C@]12C,4.95
2,C[C@H](CCCNCc1ccccc1Cl)[C@H]1CC[C@H]2[C@@H]3CC[C@@H]4C[C@H](O)CC[C@]4(C)[C@H]3CC[C@]12C,5.05
3,C[C@H](CCCN)[C@H]1CC[C@H]2[C@@H]3[C@@H](O)C[C@@H]4C[C@H](O)CC[C@]4(C)[C@H]3CC[C@]12C,4
4,C[C@H](CCCNCc1ccc(Cl)cc1)[C@H]1CC[C@H]2[C@@H]3CC[C@@H]4C[C@H](O)CC[C@]4(C)[C@H]3CC[C@]12C,5
5,C[C@H](CCC(=O)NCc1ccccc1)[C@H]1CC[C@H]2[C@@H]3[C@H](O)C[C@@H]4C[C@H](O)CC[C@]4(C)[C@H]3C[C@H](O)[C@]12C,3.54

# Next, values leading:
row,logP,SMILES
1,4.8,C[C@H](CCCNCc1ccccc1)[C@H]1CC[C@H]2[C@@H]3CC[C@@H]4C[C@H](O)CC[C@]4(C)[C@H]3C[C@H](O)[C@]12C
2,3.82,C[C@H](CCCNCc1ccccc1)[C@H]1CC[C@H]2[C@@H]3[C@H](O)C[C@@H]4C[C@H](O)CC[C@]4(C)[C@H]3C[C@H](O)[C@]12C
3,4.9,C[C@H](CCCNCc1ccccc1)[C@H]1CC[C@H]2[C@@H]3CC[C@@H]4C[C@H](O)CC[C@]4(C)[C@H]3CC[C@]12C
4,4.2,C[C@H](CCCNCc1ccccc1)[C@H]1CC[C@H]2[C@@H]3[C@H](O)C[C@@H]4C[C@H](O)CC[C@]4(C)[C@H]3CC[C@]12C
